Experiments:
Type in all cases: in vivo
[1] = tested on: Oat, Wild (wild oat, Avena fatua); experiment: Test A1 preemergence, Oat, Wild
Method in brief: (§1)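 Seeds were first planted into a blend of loam soil and sand and given a preemergence directed soil spray. In parallel, pots of the same soil were sown for postemergence application once plants reached 2 to 10 cm and the one- to two-leaf stage. Both used surfactant-containing non-phytotoxic solvent formulations.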

[2] = tested on: Oat, Wild (wild oat, Avena fatua); experiment: Test A1 postemergence, Oat, Wild; settings: for Oat, Wild plant response rating: postemergence; for Plant response rating, Oat, Wild: Postemergence
Method in brief: as §1

[3] = tested on: Pigweed, Palmer (palmer amaranth, palmer pigweed, Amaranthus palmeri); experiment: Test A1 postemergence, Pigweed, Palmer; settings: for Pigweed, Palmer plant response rating: postemergence; for Plant response rating, Pigweed, Palmer: Postemergence
Method in brief: as §1

[4] = tested on: soybean (Glycine max); experiment: Test A1 postemergence, soybean; settings: for Soybean plant response rating: postemergence; for Plant response rating, Soybean: Postemergence
Method in brief: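 Herbicidal response was scored on plants treated either preemergence, by directed spray onto soil of a loam–sand blend after sowing, or postemergence on potted plants at the one- to two-leaf stage, 2–10 cm high. Test chemicals were carried in a non-phytotoxic solvent mix with surfactant.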

[5] = tested on: barnyardgrass (Echinochloa crus-galli); experiment: Test B1 flooded paddy test, barnyardgrass; settings: 250 g ai/ha, Flood, applied to paddy water, 2-leaf stage, visually evaluated after 10 to 14 days
From the text: A dash (-) response means no test result.

[6] = 31 g ai/ha, 0 to 100 scale (0 no effect, 100 complete control)
[7] = 125 g ai/ha, 0 to 100 scale, 0 no effect, 100 complete control
[8] = 125 g ai/ha, 0 to 100 scale (0 no effect, 100 complete control), 10 days
[9] = 125 g ai/ha, 0 to 100 scale (0 no effect, 100 complete control)
[10] = 31 g ai/ha, 0 to 100 scale (0 no effect, 100 complete control), 10 days

SMILES	Plant response rating, Oat, Wild [1, 6]	Plant response rating, Oat, Wild [1, 7]	Oat, Wild plant response rating [2, 6]	Plant response rating, Oat, Wild ([2]; 125 g ai/ha, 0 to 100 scale)	Pigweed, Palmer plant response rating [3, 6]	Plant response rating, Pigweed, Palmer ([3]; 125 g ai/ha, 0 to 100 scale)	Soybean plant response rating [4, 6]	Plant response rating, Soybean ([4]; 125 g ai/ha, 0 to 100 scale)	Plant response rating, Barnyardgrass (0 to 100 scale, 0 is no effect, 100 is complete control) [5]	Plant response rating, Oat, Wild [2, 8]	Plant response rating, Pigweed, Palmer [3, 8]	Plant response rating, Soybean [4, 8]	Plant response rating, Oat, Wild ([1]; 500 g ai/ha, 0 to 100 scale (0 no effect, 100 complete control))	Plant response rating, Oat, Wild ([2]; 500 g ai/ha, 0 to 100 scale)	Plant response rating, Pigweed, Palmer ([3]; 500 g ai/ha, 0 to 100 scale)	Plant response rating, Soybean ([4]; 500 g ai/ha, 0 to 100 scale)	Plant response rating, Oat, Wild [1, 9]	Plant response rating, Oat, Wild [2, 10]	Plant response rating, Pigweed, Palmer [3, 10]	Plant response rating, Soybean [4, 10]
CCOC(=O)N(c1cc(C2=NOC3CCCC23)c(CC)cc1C)S(=O)(=O)C(F)(F)F (stereo not shown) [Compound 379]	0	20	0	20	0	10	0	20	95	–	–	–	–	–	–	–	–	–	–	–
Cc1cc(Cl)c(NS(=O)(=O)C(F)(F)F)cc1N1CC2(CCCCC2)OC1=O [Compound 394]	20	90	0	–	50	–	10	–	0	0	50	60	–	–	–	–	–	–	–	–
Cc1cc(C)c(N(COC(=O)C(C)(C)C)S(=O)(=O)C(F)(F)F)cc1N1CCC2(CCC(F)(F)CC2)C1=O [Compound 397]	–	20	–	–	–	–	–	–	90	10	80	50	90	0	100	60	–	–	–	–
CCOc1cccc2c1C(=O)N(c1cc(N(COC(=O)C(C)(C)C)S(=O)(=O)Cl)c(C)cc1C)C2 [Compound 414]	–	–	0	–	0	–	20	–	0	0	10	30	–	–	–	–	30	–	–	–
Cc1cc(C)c(C2=NOC(C(C)C)C2)cc1NS(=O)(=O)C(F)(F)F (stereo not shown) [Compound 381]	50	80	0	–	0	–	50	–	70	20	10	60	–	–	–	–	–	–	–	–
Cc1cc(C)c(N(S(=O)(=O)C(F)(F)F)S(=O)(=O)C(F)(F)F)cc1N1CCC2(CCC(C(F)(F)F)CC2)C1=O (stereo not shown) [Compound 399]	20	40	10	–	30	–	60	–	0	40	70	100	–	–	–	–	–	–	–	–
Cc1c(NS(=O)(=O)C(F)(F)F)cc(C2=NOC3(CCCC3)C2)c(C)c1C [Compound 380]	20	90	0	–	0	–	50	–	98	20	10	60	–	–	–	–	–	–	–	–
Cc1cc(Cl)c(NS(=O)(=O)C(F)(F)F)cc1N1CCC2(CCCCC2)C1=O [Compound 393]	10	70	0	–	0	–	50	–	0	10	80	60	–	–	–	–	–	–	–	–
Cc1cc(C)c(N(COC(=O)C(C)(C)C)S(=O)(=O)C(F)(F)F)cc1N1CCC2(CCC(C(F)(F)F)CC2)C1=O (stereo not shown) [Compound 403]	0	10	0	–	0	–	50	–	0	30	30	60	–	–	–	–	–	–	–	–
Cc1cc(C)c(N2Cc3cccc(Br)c3C2=O)cc1NS(=O)(=O)Cl [Compound 415]	–	–	10	–	0	–	10	–	85	30	20	30	–	–	–	–	80	–	–	–
Cc1ccc(C2=NOC3CCCC23)cc1NS(=O)(=O)C(F)(F)F (stereo not shown) [Compound 377]	0	0	0	0	0	0	0	30	0	–	–	–	–	–	–	–	–	–	–	–
COC1CCC2(CC1)CCN(c1cc(NS(=O)(=O)C(F)(F)F)c(C)cc1C)C2=O (stereo not shown) [Compound 398]	20	70	0	–	50	–	30	–	85	10	80	60	–	–	–	–	–	–	–	–
CCOC(=O)N(c1cc(C(=O)N2CCSCC2)c(C)c(C)c1C)S(=O)(=O)C(F)(F)F [Compound 286]	0	0	–	0	–	30	–	60	15	–	–	–	–	–	–	–	–	0	0	50
Cc1c(C(=O)N2CCSCC2)cc(N(COC(=O)C(C)(C)C)S(=O)(=O)C(F)(F)F)c(C)c1C [Compound 285]	0	20	–	10	–	20	–	60	35	–	–	–	–	–	–	–	–	0	0	30
Cc1c(C2=NOC3(CCCC3)C2)cc(N(COC(=O)C(C)(C)C)S(=O)(=O)C(F)(F)F)c(C)c1C [Compound 382]	20	40	0	–	0	–	40	–	90	0	20	50	–	–	–	–	–	–	–	–
COc1cccc2c1C(=O)N(c1cc(N(COC(=O)C(C)(C)C)S(=O)(=O)Cl)c(C)cc1C)C2 [Compound 413]	–	–	0	–	20	–	80	–	40	0	30	80	–	–	–	–	0	–	–	–
Cc1cc(C)c(N2Cc3cccc(C)c3C2=O)cc1NS(=O)(=O)Cl [Compound 408]	–	–	70	–	30	–	40	–	98	70	50	50	–	–	–	–	100	–	–	–
CCc1cc(C)c(N(COC(=O)C(C)(C)C)S(=O)(=O)C(F)(F)F)cc1C1=NOC2CCCC12 (stereo not shown) [Compound 378]	10	40	0	30	0	10	0	20	95	–	–	–	–	–	–	–	–	–	–	–
Cc1c(NS(=O)(=O)C(F)(F)F)cc(C(=O)N2CCSCC2)c(C)c1C [Compound 283]	–	0	–	0	–	50	–	60	15	–	–	–	–	–	–	–	–	0	10	40

Reference: US20230278972A1, “SUBSTITUTED HALOALKYL SULFONANILIDE HERBICIDES” (FMC Corporation, priority 2020, published 2023)
